# Experimental data published in patent US20110257145A1, “METHOD OF TREATING NEUROLOGICAL DISEASES” (THE BOARD OF TRUSTEES OF THE UNIVERSITY OF ILLINOIS, priority 2008, published 2011).
# Like-named read-outs stand apart in the source and are kept apart here.
# Experiments:
# [1] = system: AD cells; conditions: cited from earlier work
# [2] = system: APP-[V717I] transgenic mice; conditions: in vivo; cited from earlier work
# [3] = system: AD cells; conditions: cited from earlier work; remark: listed apart in the source
# [4] = biological target: mouse PKCα (Mus musculus, UniProt P20444); assay: PKC binding affinity
# Experimental: ClogP and topological polar surface area (tPSA) values were calculated (Table 1). ClogP values for the tested compounds ranged from 0.92 to 4.67. The tPSA values were in the range of 61.80-90.90. […] The binding affinities of the compounds for mouse PKCα were determined as described previously. The Ki values for each of the compounds 2, 3, 6, 7, and 9-14, and known […] bryostatin 1 and SAHA are listed in Table 1.
# [5] = system: acetylated histone H4 in primary cortical neurons; assay: Western blot of histone H4 acetylation; format: cell-based, rat
# Experimental: (§1) Primary neurons and cell culture: Cell cultures were obtained from the cerebral cortex of fetal Sprague-Dawley rats (embryonic day 17), as described previously. All experiments were initiated 24 hours after plating. Under these conditions, the cells are not susceptible to glutamate-mediated excitotoxicity.
# Histone precipitation and Western blot analysis: Treated neurons (about 1×10^6) were incubated in hypotonic lysis buffer (1 mL) containing Tris-HCl (pH 8.0, 10 mM), KCl (1 mM), MgCl2 (1.5 mm), DTT (1 mM), aprotinin (1 mM), pepstatin (1 mM), and PMSF (0.4 mM) for 30 minutes, rotating at 4° C. Nuclei were pelleted by centrifugation for 10 minutes at 10,000 rpm (9000 g), resuspended in H2SO4 (0.4N, 200 μL), and rotated for 12 hours at 4° C. Following centrifugation at 13,000 rpm (16,000 g value) for 10 minutes, the supernatant was transferred to anew tube, and the histone proteins were precipitated by adding 100% trichloroacetic acid (TCA: 66 μL) dropwise followed by 30 minutes incubation on ice. Histone proteins were pelleted by centrifugation at 13,000 rpm (16,000 g) for 10 minutes, washed twice with ice-cold acetone, dried at room temperature for 20-40 minutes, and resuspended in H2O ([…]). Total histone proteins (20 μL) were boiled in Laemmli buffer and electrophoresed under reducing conditions on 15% polyacrylamide gel. Histone proteins were transferred to a nitrocellulose membrane (Bio-Rad, Hercules, Calif.). Nonspecific binding was inhibited by incubation in Tris-buffered saline with Tween 20 (TBST: 50 mM Tris-HCl pH 8.0, 0.9% NaCl, and 0.1% Tween 20) containing 5% nonfat dried milk for at least 1.5 hours. Primary antibodies against acetylated histone H4 or total histone H4 (Upstate) were diluted 1:1000 or 1:4000, respectively, in TBST containing 5% milk and incubated with the membrane for 3 hours at room temperature, followed by incubation with anti-rabbit horseradish peroxidase-conjugated secondary antibodies for 2 h at room temperature. Acetyl histone H4 and total histone H4 immunoreactivity was detected according to the enhanced chemiluminescent protocol (Amersham Biosciences, Fairfield, Conn.).
# To illustrate the HDAC-inhibitory activity of the present benzolactams, an ability of the compounds to alter histone acetylation levels was examined. FIG. 3 contains Western blot analyses showing the effect of percent benzolactam compounds at 10 μM (FIG. 3A) and 20 μM (FIG. 3B) in the acetylation levels of histone H4. Cultures of primary cortical neurons were treated with the various benzolactam compounds (at 10 μM) for a period of 8 hours, and Western blot analysis then was performed using acetyl-histone H4-specific antibodies (FIG. 3A).
# [6] = system: primary cortical neurons; assay: HCA oxidative stress neuroprotection, cortical neurons (MTT); format: cell-based, rat; conditions: up to 20 μM, presence of HCA, 48 hours
# Experimental: as §1
# Oxidative toxicity and neuron viability assays: For cytotoxicity studies, cells were rinsed with warm phosphate-buffered saline (PBS), then placed in minimum essential medium (Invitrogen, Carlsbad, Calif.) containing glucose (5.5 g L^−1), 10% fetal calf serum, L-glutamine (2 mM), and cysteine (100 μM). Oxidative stress was induced by the addition of the glutamate analogue HCA ([…]) to the media. HCA was diluted from 100-fold concentrated solutions that were adjusted to pH 7.5. In combination with HCA, TSA, SAHA, or the novel PKC-HDAC compounds were added at various concentrations. Viability was assessed after 48 hours by calceinacetoxymethyl ester (AM)/ethidium homodimer-1 staining (live/dead assay; Molecular Probes, Eugene, Oreg., USA) under fluorescence microscopy and the MTT assay method. Each bar represents the mean ±SEM of four replicates.
# In this model of neurodegeneration, oxidative stress is induced by the presence of the glutamate analogue homocysteate (HCA) at a concentration of 5 mM, which depletes the cellular antioxidant glutathione through competitive inhibition of cysteine uptake at the level of the plasma membrane cysteine/glutamate antiporter system xc-. […]
# (§2) In one embodiment, the present invention relates to a method of treating an individual suffering from a disease or condition wherein activation of PKC and inhibition of HDAC provides a benefit comprising administering a therapeutically effective amount of a compound of structural formula (I) to an individual in need thereof. […] Neuron survival was quantified by MTT assay, a colorimetric assay in which the amount of yellow MTT is reduced to purple formazan by active mitochondrial reductase enzymes in viable cells.
# [7] = system: HEK293 cells stably transfected with human APP; assay: Aβ40 ELISA; format: cell-based; conditions: 24 h
# Experimental: (§3) sAPPα and Aβ40 detection: […] cell lines stably transfected with human APP were maintained in Dulbecco's modified Eagle's medium (DMEM) with 10% fetal bovine serum (FBS). Cells were seeded onto 6-well plates, and incubated at 37° C. overnight. Compounds 9-14 were first dissolved in dimethyl sulfoxide (DMSO) as a 10 mM stock and diluted into the respective concentrations with fresh DMEM with 10% FBS. After exposure overnight, the cell medium was replaced by fresh medium containing the PKC agonist. After incubation for 48 hours, the medium was collected, and both the soluble APP (sAPPα) and Aβ40 levels in the medium were determined by using the sAPPα and Aβ40 ELISA kits obtained from Biosource, Camarillo, Calif. according to the manufacturer's instructions.
# It is theorized, but not relied upon, that if APP synthesis is held relatively constant, the production of Aβ decreases if more of the APP is processed through the α-secretase pathway. To confirm that treatment with a present benzolactam enhances the α-secretase APP-processing pathway, compounds 9-14 were examined to determine whether the increased levels of sAPPα corresponds to a decrease in the production of Aβ40. The cells were treated for 24 h at concentrations ranging from 0.001 to 10 μM, and Aβ40 levels were measured by Aβ40 ELISA. […] In FIG. 2, the data are presented as in FIG. 1, with “*” and “**” having the same meaning. […] In general, there was good agreement between an ability of a present benzolactam to increase sAPPα and its ability to decrease Aβ40.
# [8] = system: HEK293 cells stably transfected with human APP; assay: sAPPα ELISA; format: cell-based
# Experimental: as §3
# In FIG. 1, the data are presented as percent of control±SEM.
# [9] = system: primary cortical neurons; assay: neuron viability in the absence of HCA (MTT); format: cell-based, rat; conditions: concentration not given
# Experimental: as §1
# Oxidative toxicity and neuron viability assays: For cytotoxicity studies, cells were rinsed with warm phosphate-buffered saline (PBS), then placed in minimum essential medium (Invitrogen, Carlsbad, Calif.) containing glucose (5.5 g L^−1), 10% fetal calf serum, L-glutamine (2 mM), and cysteine (100 μM). […] Viability was assessed after 48 hours by calceinacetoxymethyl ester (AM)/ethidium homodimer-1 staining (live/dead assay; Molecular Probes, Eugene, Oreg., USA) under fluorescence microscopy and the MTT assay method. […]
# as §2
# [10] = concentration not given in the sentence (FIG. 3: 10 and 20 μM)
# [11] = mouse PKCα, read-out: K1[nm] ± SEM
compound,measurement,setting,value
"CCCCCCCCC#Cc1ccc2c(c1)CC(CO)NC(=O)C(C(C)C)N2C (centres unmarked) [BL, 8-(1-decynyl)benzolactam]",K+ channel defects,[1],reverses
same,Aβ40 in the brains,[2],decrease
same,amount of sAPPα in the brains,[2],significantly increase
same,secretion of sAPPα,[3],enhances the secretion of sAPPα
"CC(C)[C@H]1C(=O)N[C@H](CO)Cc2ccc(O)cc2N1C [Compound 2, 9-Hydroxy-5-hydroxymethyl-2-isopropyl-1-methyl-(2S,5S)-1,4,5,6-tetrahydro-2H-benzo[e][1,4]diazocin-3-one]",Ki,[4],4840 ± 320 nM
"C=CCCCCCOc1ccc2c(c1)N(C)C(C(C)C)C(=O)NC(CO)C2 (centres unmarked) [Compound 3, 9-Hept-6-enyloxy-5-hydroxymethyl-2-isopropyl-1-methyl-1,4,5,6-tetrahydro-2H-benzo[e][1,4]diazocin-3-one]",histone H4 acetylation,[5]; 20 μM,did not increase histone H4 acetylation
same,neuroprotection,[6],no neuroprotection
"CC(C)[C@H]1C(=O)N[C@H](CO)Cc2ccc(OCCNC(=O)CCCCC3CCSS3)cc2N1C (stereo partly drawn) [Compound 6, 1N-{2-[5-Hydroxymethyl-2-isopropyl-1-methyl-3-oxo-(2S,5S)-1,2,3,4,5,6-hexahydrobenzo[e][1,4]diazocin-9-yloxy]ethyl}-5-(1,2-dithiolan-3-yl)pentanamide]",histone H4 acetylation,[5]; [10],failed to induce histone H4 acetylation
same,neuroprotection,[6],no neuroprotection
same,Ki,[4]; [11],148 ± 18 nM
"CC(C)[C@H]1C(=O)N[C@H](CO)Cc2ccc(OC(=O)CCCCC3CCSS3)cc2N1C (stereo partly drawn) [Compound 7, (2S,5S)-1,2,3,4,5,6-Hexahydro-5-(hydroxymethyl)-2-isopropyl-1-methyl-3-oxobenzo[e][1,4]diazocin-9-yl-5-(1,2-dithiolan-3-yl)pentanoate]",histone H4 acetylation,[5]; [10],failed to induce histone H4 acetylation
same,neuroprotection,[6],no neuroprotection
same,Ki,[4]; [11],5.7 ± 1 nM
"CC(=O)SCCCOc1ccc2c(c1)N(C)C(C(C)C)C(=O)NC(CO)C2 (stereo not drawn) [Compound 9, Thioacetic acid S-[3-(5-hydroxymethyl-2-isopropyl-1-methyl-3-oxo-1,2,3,4,5,6-hexahydrobenzole[e][1,4]diazocin-9-yloxy)propyl]ester]",Aβ40 levels,[7]; 10 μM,significant decrease in Aβ40 levels
same,histone H4 acetylation,"[5]; 10 μM, 8 hours",less effective at inducing histone H4 acetylation
same,histone H4 acetylation,[5]; 20 μM,modest acetylation was observed
same,sAPPα levels,[8]; 10 μm,increase in sAPPα levels
"CC(=O)SCCCCOc1ccc2c(c1)N(C)C(C(C)C)C(=O)NC(CO)C2 (stereo not drawn) [Compound 10, Thioacetic acid S-[4-(5-hydroxymethyl-2-isopropyl-1-methyl-3-oxo-1,2,3,4,5,6-hexahydrobenzo[e][1,4]diazocin-9-yloxy)butyl] ester]",Aβ40 levels,[7]; 10 μM,significant decrease in Aβ40 levels
same,histone H4 acetylation,"[5]; 10 μM, 8 hours",less effective at inducing histone H4 acetylation
same,histone H4 acetylation,[5]; 20 μM,modest acetylation was observed
same,sAPPα levels,[8]; 1 nM,statistically significant elevation in sAPPα
"CC(=O)SCCCCCOc1ccc2c(c1)N(C)C(C(C)C)C(=O)NC(CO)C2 (stereo not drawn) [Compound 11, Thioacetic acid S-[5-(5-hydroxymethyl-2-isopropyl-1-methyl-3-oxo-1,2,3,4,5,6-hexahydrobenzo[e][1,4]diazocin-9-yloxy)pentyl] ester]",Aβ40 levels,[7]; 10 μM,significant decrease in Aβ40 levels
same,sAPPα levels,[8]; 10 μm,increase in sAPPα levels
"CC(=O)SCCCCCCOc1ccc2c(c1)N(C)C(C(C)C)C(=O)NC(CO)C2 (stereo not drawn) [Compound 12, Thioacetic acid S-[6-(5-hydroxymethyl-2-isopropyl-1-methyl-3-oxo-1,2,3,4,5,6-hexahydrobenzo[e][1,4]diazocin-9-yloxy)hexyl] ester]",Aβ40 levels,[7]; 10 μM,significant decrease in Aβ40 levels
same,sAPPα levels,[8]; 1-10 μm,increase in sAPPα levels
same,Ki,[4]; [11],8.7 ± 0.7 nM
"CC(=O)SCCCCCCCOc1ccc2c(c1)N(C)C(C(C)C)C(=O)NC(CO)C2 (stereo not drawn) [Compound 13, Thioacetic acid S-[7-(5-hydroxymethyl-2-isopropyl-1-methyl-3-oxo-1,2,3,4,5,6-hexahydrobenzo[e][1,4]diazocin-9-yloxy)heptyl] ester]",Aβ40 levels,[7]; 1-10 μM,significant decrease in Aβ40 levels
same,sAPPα levels,[8]; 10 μm,increase in sAPPα levels
same,Ki,[4],4.5 ± 0.4 nM
"CC(=O)SCCCCCCCCOc1ccc2c(c1)N(C)C(C(C)C)C(=O)NC(CO)C2 (stereo not drawn) [Compound 14, Thioacetic acid S-[8-(5-hydroxymethyl-2-isopropyl-1-methyl-3-oxo-1,2,3,4,5,6-hexahydrobenzole[e][1,4]diazocin-9-yloxy)octyl] ester]",Aβ40 levels,[7]; 1-10 μM,significant decrease in Aβ40 levels
same,sAPPα levels,[8]; 1-10 μm,increase in sAPPα levels
"CC(/C=C/C(=O)NO)=C\[C@@H](C)C(=O)c1ccc(N(C)C)cc1 [TSA, trichostatin A]",toxicity in neuron viability measurements,[9],considerable dose dependent toxicity
